Source: article PMC6089501 (Journal of Medicinal Chemistry, 2018)
Converted amounts (≈) assume the structure as drawn. “And” between values parts separate entries of the source, which are not always exact repeats. Equal entries are not always repeated. Where two headings read alike, the source gives them in different places.

Assays:
Vero cells [1] = conditions: read-out: VERO IC50
Method: (§1) Compounds were solubilized in DMSO and assayed as a 10-point 3-fold serial dilution. Compounds were incubated with cells for 2 days at 37 °C, 5% CO2. CellTiter-Glo Reagent (Promega) was added and relative luminescent units (RLU) measured.

[2] = for CL mouse MEAN: microsomes
M. tuberculosis H37Rv = test: microbe, parasite or virus in culture; format: cell-based, Mycobacterium tuberculosis; conditions: for MIC90 / IC90: Mycobacterium tuberculosis, H37RV; for MIC90: read-out: MIC (MIC90); for IC90: read-out: TB-IC90_OD GEOM_MEAN
Vero cells [3] = test: cells; conditions: Chlorocebus sabaeus, read-out: VERO IC50
Method: as §1

## 3-(2,2-Difluoro-2-phenylethoxy)-5-morpholinothiophene-2-carboxamide [Compound 50]
Vero cells [1]
  IC50: 95 µM
[2]; mouse
  CL mouse MEAN: 19.1 mL/min/g
M. tuberculosis H37Rv
  MIC (MIC90): >20 (2) μM

## 5-(3-Methylmorpholino)-3-phenethoxythiophene-2-carboxamide [Compound 31]
Vero cells [1]
  IC50: 77 µM and 79.4 µM
[2]; mouse
  CL mouse MEAN: 11.19 mL/min/g
M. tuberculosis H37Rv
  MIC (MIC90): >20 (2) μM

## 5-[2-Methoxyethyl(methyl)amino]-3-(2-phenylethoxy)thiophene-2-carboxamide [Compound 32]
Vero cells [1]
  IC50: > 100 µM
[2]; mouse
  CL mouse MEAN: 28.42 mL/min/g
M. tuberculosis H37Rv
  MIC (MIC90): >20 (3) μM

## COC(=O)c1sc(N2CCOCC2)cc1OCCc1ccccc1 [Compound 14, Methyl 5-Morpholino-3-(2-phenylethoxy)thiophene-2-carboxylate]
Vero cells [3]
  IC50: > 100 µM
[2]; female, CD1, mouse, pH 7.4
  Cli mouse: 50 mL.min^–1.g^–1
M. tuberculosis H37Rv
  MIC90: > 20 µM

## O=C(NO)c1sc(N2CCOCC2)cc1OCCc1ccccc1 [Compound 16, 5-Morpholino-3-(2-phenylethoxy)thiophene-2-carbohydroxamic Acid]
Vero cells [1]
  IC50: 58 µM
Vero cells [3]
  IC50: 58 µM
[2]; female, CD1, mouse, pH 7.4
  Cli mouse: 6 mL.min^–1.g^–1
[2]; mouse
  CL mouse MEAN: 6.073 mL/min/g
M. tuberculosis H37Rv
  MIC90: 3.5 µM (≈ 1.22 µg/mL)
  IC90: 3.32 µM

## CCNC(=O)c1sc(N2CCOCC2)cc1OCCc1ccccc1 [Compound 22, N-Ethyl-5-morpholino-3-(2-phenylethoxy)thiophene-2-carboxamide]
Vero cells [1]
  IC50: 56 µM
Vero cells [3]
  IC50: 56 µM
[2]; female, CD1, mouse, pH 7.4
  Cli mouse: 50 mL.min^–1.g^–1
[2]; mouse
  CL mouse MEAN: 50 mL/min/g
M. tuberculosis H37Rv
  MIC90: 1.7 µM (≈ 0.613 µg/mL)
  IC90: 1.67 µM

## NC(=O)c1sccc1OCCc1ccccc1 [Compound 27, 3-(2-Phenylethoxy)thiophene-2-carboxamide]
Vero cells [3]
  IC50: > 100 µM
[2]; female, CD1, mouse, pH 7.4
  Cli mouse: 26 mL.min^–1.g^–1
[2]; mouse
  CL mouse MEAN: 26 mL/min/g
physchem
  chromatographic logD: 2.05
M. tuberculosis H37Rv
  MIC90: > 20 µM
  IC90: > 20 µM

## CNC(=O)c1sc(N2CC3CC2CO3)cc1OCCc1ccccc1 (stereo not drawn) [Compound 30, 5-(2-Oxa-5-azabicyclo[2.2.1]heptan-5-yl)-N-methyl-3-phenethoxythiophene-2-carboxamide]
Vero cells [1]
  IC50: 69.2 µM
Vero cells [3]
  IC50: 72 µM
[2]; female, CD1, mouse, pH 7.4
  Cli mouse: 13 mL.min^–1.g^–1
[2]; mouse
  CL mouse MEAN: 12.51 mL/min/g
M. tuberculosis H37Rv
  drop in potency / activity: > 5 fold
  MIC90: 3.8 µM (≈ 1.36 µg/mL)
  IC90: 3.64 µM

## COc1ccc(CCOc2cc(N3CCOCC3)sc2C(N)=O)cc1 [Compound 36, 3-[2-(4-Methoxyphenyl)ethoxy]-5-morpholinothiophene-2-carboxamide]
Vero cells [3]
  IC50: > 100 µM
[2]; female, CD1, mouse, pH 7.4
  Cli mouse: 5.7 mL.min^–1.g^–1
[2]; mouse
  CL mouse MEAN: 5.742 mL/min/g
physchem
  chromatographic logD: 1.73
M. tuberculosis H37Rv
  MIC90: 0.63 µM (≈ 0.228 µg/mL)
  IC90: 0.57 µM

## NC(=O)c1sc(N2CCOCC2)cc1OCCc1ccc(F)cc1 [Compound 40]
Vero cells [3]
  IC50: > 100 µM
[2]; female, CD1, mouse, pH 7.4
  CL mouse MEAN: 12.72 mL/min/g
  Cli mouse: 13 mL.min^–1.g^–1
physchem
  chromatographic logD: 1.85
M. tuberculosis H37Rv
  MIC90: 0.9 µM (≈ 0.315 µg/mL)

## COc1cccc(CCOc2cc(N3CCOCC3)sc2C(N)=O)c1 [Compound 41, 3-[2-(3-Methoxyphenyl)ethoxy]-5-morpholinothiophene-2-carboxamide]
Vero cells [3]
  IC50: 89 µM
[2]; female, CD1, mouse, pH 7.4
  Cli mouse: 10 mL.min^–1.g^–1
[2]; mouse
  CL mouse MEAN: 10.31 mL/min/g
physchem
  chromatographic logD: 1.85
M. tuberculosis H37Rv
  MIC90: 1.6 µM (≈ 0.58 µg/mL)

## COc1ccccc1CCOc1cc(N2CCOCC2)sc1C(N)=O [Compound 42, 3-[2-(2-Methoxyphenyl)ethoxy]-5-morpholinothiophene-2-carboxamide]
Vero cells [3]
  IC50: > 100 µM
[2]; female, CD1, mouse, pH 7.4
  Cli mouse: 26 mL.min^–1.g^–1
[2]; mouse
  CL mouse MEAN: 26.42 mL/min/g
physchem
  chromatographic logD: 1.95
M. tuberculosis H37Rv
  MIC90: > 20 µM

## NC(=O)c1sc(N2CCOCC2)cc1OCCc1ccncc1 [Compound 43, 5-Morpholino-3-[2-(4-pyridyl)ethoxy]thiophene-2-carboxamide]
Vero cells [3]
  IC50: > 100 µM
[2]; female, CD1, mouse, pH 7.4
  Cli mouse: 8 mL.min^–1.g^–1
[2]; mouse
  CL mouse MEAN: 8.013 mL/min/g
physchem
  chromatographic logD: 0.617
M. tuberculosis H37Rv
  MIC90: > 20 µM

## N#Cc1ccc(CCOc2cc(N3CCOCC3)sc2C(N)=O)cc1 [Compound 44, 3-[2-(4-Cyanophenyl)ethoxy]-5-morpholino-thiophene-2-carboxamid]
Vero cells [3]
  IC50: > 100 µM
[2]; female, CD1, mouse, pH 7.4
  Cli mouse: 4.8 mL.min^–1.g^–1
[2]; mouse
  CL mouse MEAN: 4.758 mL/min/g
physchem
  chromatographic logD: 1.56
M. tuberculosis H37Rv
  MIC90: 14 µM (≈ 5 µg/mL)

## NC(=O)c1sc(N2CCOCC2)cc1OCC1CCCO1 (stereo not drawn) [Compound 45, 5-Morpholino-3-((tetrahydrofuran-2-yl)methoxy)thiophene-2-carboxamide]
Vero cells [3]
  IC50: > 100 µM
[2]; female, CD1, mouse, pH 7.4
  Cli mouse: 4.3 mL.min^–1.g^–1
[2]; mouse
  CL mouse MEAN: 4.249 mL/min/g
M. tuberculosis H37Rv
  MIC90: > 20 µM

## NC(=O)c1sc(N2CCOCC2)cc1OCCN1CCOCC1 [Compound 47, 5-Morpholino-3-(2-morpholinoethoxy)thiophene-2-carboxamide]
Vero cells [3]
  IC50: > 100 µM
[2]; female, CD1, mouse, pH 7.4
  Cli mouse: 0.9 mL.min^–1.g^–1
[2]; mouse
  CL mouse MEAN: 0.8847 mL/min/g
physchem
  chromatographic logD: 0.189
M. tuberculosis H37Rv
  MIC90: > 20 µM

## NC(=O)c1sc(N2CCOCC2)cc1OCc1ccccc1 [Compound 48, 3-Benzyloxy-5-morpholinothiophene-2-carboxamide]
Vero cells [3]
  IC50: > 100 µM
[2]; female, CD1, mouse, pH 7.4
  Cli mouse: 14 mL.min^–1.g^–1
[2]; mouse
  CL mouse MEAN: 14.31 mL/min/g
physchem
  chromatographic logD: 1.52
M. tuberculosis H37Rv
  MIC90: > 20 µM

## NC(=O)c1sc(N2CCOCC2)cc1CCCc1ccccc1 [Compound 49, 5-Morpholino-3-(3-phenylpropyl)thiophene-2-carboxamide]
Vero cells [3]
  IC50: 69 µM
[2]; female, CD1, mouse, pH 7.4
  Cli mouse: 20 mL.min^–1.g^–1
[2]; mouse
  CL mouse MEAN: 20.17 mL/min/g
M. tuberculosis H37Rv
  MIC90: 3.5 µM (≈ 1.16 µg/mL)

## NC(=O)c1sc(N2CCOCC2)cc1OCC(O)c1ccccc1 (stereo not drawn) [Compound 51, 3-(2-Hydroxy-2-phenylethoxy)-5-morpholinothiophene-2-carboxamine]
Vero cells [3]
  IC50: > 100 µM
[2]; female, CD1, mouse, pH 7.4
  Cli mouse: 3.8 mL.min^–1.g^–1
[2]; mouse
  CL mouse MEAN: 3.788 mL/min/g
physchem
  chromatographic logD: 1.12
M. tuberculosis H37Rv
  MIC90: > 20 µM

## NC(=O)c1sc(N2CCOCC2)cc1OC1CCCc2ccccc21 (stereo not drawn) [Compound 52, 5-Morpholino-3-tetralin-1-yloxy-thiophene-2-carboxamide]
Vero cells [3]
  IC50: 56 µM
[2]; female, CD1, mouse, pH 7.4
  Cli mouse: 5.4 mL.min^–1.g^–1
[2]; mouse
  CL mouse MEAN: 5.383 mL/min/g
physchem
  chromatographic logD: 2.22
M. tuberculosis H37Rv
  MIC90: > 20 µM

## NC(=O)c1sc(N2CCOCC2)cc1OC1CCc2ccccc21 (stereo not drawn) [Compound 53, 3-Indan-1-yloxy-5-morpholinothiophene-2-carboxamide]
Vero cells [3]
  IC50: > 100 µM
[2]; female, CD1, mouse, pH 7.4
  Cli mouse: 1.4 mL.min^–1.g^–1
[2]; mouse
  CL mouse MEAN: 1.393 mL/min/g
physchem
  chromatographic logD: 1.15
M. tuberculosis H37Rv
  MIC90: > 20 µM

## NC(=O)c1ccc(N2CCOCC2)cc1OCCc1ccccc1 [Compound 54, 4-Morpholino-2-phenethoxybenzamide]
Vero cells [3]
  IC50: > 100 µM
[2]; female, CD1, mouse, pH 7.4
  Cli mouse: 12 mL.min^–1.g^–1
[2]; mouse
  CL mouse MEAN: 12.21 mL/min/g
physchem
  chromatographic logD: 2.11
M. tuberculosis H37Rv
  MIC90: > 20 µM

## NC(=O)c1nc(N2CCOCC2)ccc1OCCc1ccccc1 [Compound 57, 6-Morpholino-3-(2-phenylethoxy)pyridine-2-carboxamide]
Vero cells [3]
  IC50: > 100 µM
[2]; female, CD1, mouse, pH 7.4
  Cli mouse: 2.3 mL.min^–1.g^–1
[2]; mouse
  CL mouse MEAN: 2.315 mL/min/g
physchem
  chromatographic logD: 1.61
M. tuberculosis H37Rv
  MIC90: 6.9 µM (≈ 2.26 µg/mL)
